System: Human dermal fibroblasts
Experiment: Stimulation of collagen synthesis, procollagen type I C-peptide (PIP) EIA on conditioned medium
Assay type: cell-based
Settings: compound at 0.0005% in DMSO, triplicate, 48-hour incubation; increase in collagen over the DMSO control
Procedure: Human dermal fibroblasts (Cascade Biologics, Portland, Oreg.) were plated at 10,000 cells/well in 96-well culture plates in supplemented medium (DMEM, 10% Fetal Bovine Serum, 1% Penicillin/Streptomycin and 1% L-Glutamine) overnight in humidified atmosphere of 10% CO2 at 37° C. […] DMSO solution was used a control. Following 48-hour incubation, the plates were removed from the incubator and the medium from each well was collected for the procollagen assay. Collagen production was measured using procollagen type I C-peptide (PIP) EIA kit (Takara Bio, Inc., Japan). […] The ELISA plate was incubated at 37° C. for 3 hours before the wells were washed four times with 400 μl of 1×PBS. At the end of wash, 100 μl of substrate solution (supplied with kit) was added to the wells and incubated at room temperature for 15 minutes. The reaction was stopped by adding 100 μl of 1N sulfuric acid to the wells. The absorbance was measured on a spectrophotometer at 450 nm wavelength. The amount of procollagen peptide in the conditioned medium was calculated from the standard curve. The stimulation of collagen production was shown as an increase in collagen over the control.

SMILES | % Collagen Stimulation [%]
CCOCCCNC(=O)c1coc(CN(CCCOCC)C(=O)c2ccc(Cl)cc2)n1 [Compound 2] | 67.86
CCOCCCNC(=O)c1coc(CN(CCCOCC)C(=O)c2cccc(Br)c2)n1 [Compound 1] | 68.77
